Reference: BindingDB's records for doi:10.1021/acs.jmedchem.8b01226 (Recordati, 2019)

Biological target: Metabotropic glutamate receptor 1 (Rattus norvegicus, UniProt P23385)
Assay: Displacement of […] from rat mGlu1 receptor expressed in CHO-TREx cell membranes after 30 mins by liquid scintillation spectrometric analysis

Metabotropic glutamate receptor 1, sequence (P23385 whole entry): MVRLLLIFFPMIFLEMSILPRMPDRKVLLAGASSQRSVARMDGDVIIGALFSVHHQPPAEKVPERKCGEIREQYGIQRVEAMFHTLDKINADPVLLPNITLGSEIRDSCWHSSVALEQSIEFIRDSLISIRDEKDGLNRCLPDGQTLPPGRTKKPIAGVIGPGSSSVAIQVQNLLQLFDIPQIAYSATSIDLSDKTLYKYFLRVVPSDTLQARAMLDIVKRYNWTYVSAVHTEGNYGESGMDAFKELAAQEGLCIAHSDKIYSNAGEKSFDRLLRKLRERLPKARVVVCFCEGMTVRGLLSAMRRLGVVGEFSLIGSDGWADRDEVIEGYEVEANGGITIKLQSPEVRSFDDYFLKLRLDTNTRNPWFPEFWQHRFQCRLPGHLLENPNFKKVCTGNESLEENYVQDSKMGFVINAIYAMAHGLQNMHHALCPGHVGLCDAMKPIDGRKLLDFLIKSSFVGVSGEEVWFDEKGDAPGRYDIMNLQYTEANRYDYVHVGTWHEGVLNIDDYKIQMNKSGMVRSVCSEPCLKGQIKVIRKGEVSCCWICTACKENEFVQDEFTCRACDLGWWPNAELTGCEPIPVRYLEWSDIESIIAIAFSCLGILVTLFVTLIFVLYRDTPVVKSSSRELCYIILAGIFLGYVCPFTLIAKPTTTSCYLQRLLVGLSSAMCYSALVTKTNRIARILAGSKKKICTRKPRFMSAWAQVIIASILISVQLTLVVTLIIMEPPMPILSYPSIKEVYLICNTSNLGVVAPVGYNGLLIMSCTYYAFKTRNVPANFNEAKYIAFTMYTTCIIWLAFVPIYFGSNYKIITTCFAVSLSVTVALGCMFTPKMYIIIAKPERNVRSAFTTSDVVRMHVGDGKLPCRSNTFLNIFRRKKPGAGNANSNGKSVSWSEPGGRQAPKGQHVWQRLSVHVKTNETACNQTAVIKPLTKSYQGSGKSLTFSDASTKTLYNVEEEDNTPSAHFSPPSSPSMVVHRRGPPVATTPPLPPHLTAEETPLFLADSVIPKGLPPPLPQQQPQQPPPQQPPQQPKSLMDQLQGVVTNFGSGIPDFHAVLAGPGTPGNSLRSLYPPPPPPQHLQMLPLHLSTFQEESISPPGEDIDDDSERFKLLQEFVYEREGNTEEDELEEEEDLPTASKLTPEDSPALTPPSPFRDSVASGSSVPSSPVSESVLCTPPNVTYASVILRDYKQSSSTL

Compound: Cc1nc(C#Cc2cccnc2)cs1 [3-(2-(2-methylthiazol-4-yl)ethynyl)pyridine]
- Ki: > 10 µM
